Data taken from publication PMC6429159, “Evolution and Biological Evaluation of Matrinic Derivatives with Amantadine Fragments As New Anti-Influenza Virus Agents” (Molecules, 2019).
Counter-ions that a name gives are not always drawn.

How the values were obtained:
[1] = system: influenza virus A/hanfang/359/95 (H3N2); assay: organism not typed; type: cell-based; conditions: MDCK cells; for IC50: 50% virus-inhibitory concentration after 40 hr at 37 °C, – = no anti-H3N2 activity at the maximum non-toxic concentration; for anti-H3N2 activity (in words): CPE assay
[2] = system: influenza virus A/Fort Monmouth/1/1947 (H1N1); assay: organism not typed; type: cell-based; conditions: MDCK cells, CPE
MDCK cells = assay: Cytotoxicity assay; type: cell-based; conditions: 50% cytotoxic concentration, 48 hr
Description: A three-fold dilution compound was added to cell monolayer, and the cells continued to be cultivated for 48 hr, and then the CPE was recorded. The TC50 value of each compound was calculated by the methods of Reed & Muench.

[3] = Stability assay in whole blood; type: in vitro ADME, SD rats; conditions: in vitro, 37 °C
Description: The results hinted that 9f owned a good PK stability profile in blood, and it was chosen for the next investigation.
The fresh bloods were collected on the day of experiment from SD rats, and pre-warmed in a water bath at 37 °C. A concentration of 10 mM tested compound or enalapril stock solutions were prepared in DMSO, and then diluted with 45% MeOH/H2O to achieve […] dosing solutions. […] At the end of incubation, for each sample, […] water and […] of stop solution (200 ng·mL^−1 tolbutamide plus 20 ng·mL^−1 buspirone in acetonitrile) were immediately added to precipitate the protein, and centrifuged at 4000 rpm for 20 min. An aliquot of supernatant ([…]) was then extracted, mixed with […] H2O, and then shaken at 800 rpm for about 10 min before being submitted for a liquid chromatography-tandem mass […] (LC-MS/MS) analysis. The experiment was repeated twice.
Figure 3 The stability assessments of key compounds 9f and 9j in whole blood. […]

Compound	melting point	IC50 [1] [µM]	TC50 (MDCK cells) [µM]	also measured
O=C(OCCCC[C@@H]1[C@H]2CCCN3CCC[C@@H](CN1S(=O)(=O)c1ccc(C(F)(F)F)cc1)[C@@H]23)C12CC3CC(CC(C3)C1)C2 (as salt: hydrochloride) [Compound 9a, 12N-p-Trifluoromethlybenzenesulfonyl matrinic butyl adamantine-1’-carboxylate hydrochloride]	231 °C (dec.)	–	–	–
O=C(CC12CC3CC(CC(C3)C1)C2)OCCCC[C@@H]1[C@H]2CCCN3CCC[C@@H](CN1S(=O)(=O)c1ccc(C(F)(F)F)cc1)[C@@H]23 (as salt: hydrochloride) [Compound 9b, 12N-p-Trifluoromethlybenzenesulfonyl matrinic butyl-1’-adamantaneacetatehydrochloride]	227 °C (dec.)	–	–	–
O=C(OCCCC[C@@H]1[C@H]2CCCN3CCC[C@@H](CN1S(=O)(=O)c1ccc(C(F)(F)F)cc1)[C@@H]23)C12CC3CC(CC(Br)(C3)C1)C2 (as salt: hydrochloride) [Compound 9c, 12N-p-Trifluoromethlybenzenesulfonylmatrinicbutyl-3’-bromoadamantane-1’-carboxylate hydrochloride]	222 to 223 °C	–	–	–
O=C(OCCCC[C@@H]1[C@H]2CCCN3CCC[C@@H](CN1S(=O)(=O)c1cccc(C(F)(F)F)c1)[C@@H]23)C12CC3CC(CC(C3)C1)C2 (as salt: hydrochloride) [Compound 9d, 12N-m-Trifluoromethlybenzenesulfonyl matrinic butyl adamantine-1’-carboxylate hydrochloride]	190 to 191 °C	–	–	–
O=C(CC12CC3CC(CC(C3)C1)C2)OCCCC[C@@H]1[C@H]2CCCN3CCC[C@@H](CN1S(=O)(=O)c1cccc(C(F)(F)F)c1)[C@@H]23 (as salt: hydrochloride) [Compound 9e, 12N-m-Trifluoromethlybenzenesulfonyl matrinic butyl-1’-adamantaneacetatehydrochloride]	155 to 156 °C	–	–	–
O=C(OCCCC[C@@H]1[C@H]2CCCN3CCC[C@@H](CN1S(=O)(=O)c1ccc(C(F)(F)F)cc1)[C@@H]23)C12CC3CC(CC1C3)C2 (as salt: hydrochloride) [Compound 9g, 12N-p-Trifluoromethlybenzenesulfonylmatrinicbutyl-3’-noradamantane-1’-carboxylate hydrochloride]	186 to 187 °C	–	–	–
O=C(OCCCC[C@@H]1[C@H]2CCCN3CCC[C@@H](CN1S(=O)(=O)c1cccc(C(F)(F)F)c1)[C@@H]23)C12CC3CC(CC1C3)C2 (as salt: hydrochloride) [Compound 9h, 12N-m-Trifluoromethlybenzenesulfonylmatrinicbutyl-3’-noradamantane-1’-carboxylate hydrochloride]	207 °C (dec.)	–	–	–
O=C(CC1CC2CCC1C2)OCCCC[C@@H]1[C@H]2CCCN3CCC[C@@H](CN1S(=O)(=O)c1ccc(C(F)(F)F)cc1)[C@@H]23 (stereo partly shown) (as salt: hydrochloride) [Compound 9i, 12N-p-Trifluoromethlybenzenesulfonyl matrinic butyl-2’-norbornane acetate hydrochloride]	223 °C (dec.)	–	–	–
CC(C)(C)C(=O)OCCCC[C@@H]1[C@H]2CCCN3CCC[C@@H](CN1S(=O)(=O)c1ccc(C(F)(F)F)cc1)[C@@H]23 (as salt: hydrochloride) [Compound 9k, 12N-p-Trifluoromethlybenzenesulfonyl matrinic butyl pivalate hydrochloride]	219 to 221 °C	–	–	–
CC(C)(C)C(=O)OCCCC[C@@H]1[C@H]2CCCN3CCC[C@@H](CN1S(=O)(=O)c1cccc(C(F)(F)F)c1)[C@@H]23 (as salt: hydrochloride) [Compound 9l, 12N-m-Trifluoromethlybenzenesulfonyl matrinicbutylpivalate hydrochloride]	162 to 164 °C	–	–	–
NC12CC3CC(CC(C3)C1)C2 [AH, amantadine hydrochloride, reference compound]	–	3.25 ± 0.5	–	IC50 [2]: 2.73 µM
CCCC[C@@H]1[C@H]2CCCN3CCC[C@@H](CN1S(=O)(=O)c1ccc(C(F)(F)F)cc1)[C@@H]23 [Compound 7a]	–	21.3 ± 1.9	79.8 ± 4.7	–
CCCC[C@@H]1[C@H]2CCCN3CCC[C@@H](CN1S(=O)(=O)c1cccc(C(F)(F)F)c1)[C@@H]23 [Compound 7b]	–	28.9 ± 2.4	86.6 ± 2.3	–
CCCC[C@@H]1[C@H]2CCCN3CCC[C@@H](CN1S(=O)(=O)c1ccccc1C(F)(F)F)[C@@H]23 [Compound 7c]	–	50 ± 1.1	86.6 ± 3.8	–
O=C(OCCCC[C@@H]1[C@H]2CCCN3CCC[C@@H](CN1S(=O)(=O)c1ccc(C(F)(F)F)cc1)[C@@H]23)C12CC3CC(CC(C3)C1)C2 [Compound 9a, 12N-p-Trifluoromethlybenzenesulfonyl matrinic butyl adamantine-1’-carboxylate hydrochloride]	–	16.5 ± 2.9	19.5 ± 2.8	–
O=C(CC12CC3CC(CC(C3)C1)C2)OCCCC[C@@H]1[C@H]2CCCN3CCC[C@@H](CN1S(=O)(=O)c1ccc(C(F)(F)F)cc1)[C@@H]23 [Compound 9b, 12N-p-Trifluoromethlybenzenesulfonyl matrinic butyl-1’-adamantaneacetatehydrochloride]	–	28.4 ± 2.3	61.9 ± 1.9	–
O=C(OCCCC[C@@H]1[C@H]2CCCN3CCC[C@@H](CN1S(=O)(=O)c1ccc(C(F)(F)F)cc1)[C@@H]23)C12CC3CC(CC(Br)(C3)C1)C2 [Compound 9c, 12N-p-Trifluoromethlybenzenesulfonylmatrinicbutyl-3’-bromoadamantane-1’-carboxylate hydrochloride]	–	8.2 ± 2.07	73.6 ± 4.3	IC50 [2]: 27.5 ± 0.1 µM
O=C(OCCCC[C@@H]1[C@H]2CCCN3CCC[C@@H](CN1S(=O)(=O)c1cccc(C(F)(F)F)c1)[C@@H]23)C12CC3CC(CC(C3)C1)C2 [Compound 9d, 12N-m-Trifluoromethlybenzenesulfonyl matrinic butyl adamantine-1’-carboxylate hydrochloride]	–	5.9 ± 0.9	54.9 ± 3.5	IC50 [2]: 22.4 ± 1.3 µM
O=C(CC12CC3CC(CC(C3)C1)C2)OCCCC[C@@H]1[C@H]2CCCN3CCC[C@@H](CN1S(=O)(=O)c1cccc(C(F)(F)F)c1)[C@@H]23 [Compound 9e, 12N-m-Trifluoromethlybenzenesulfonyl matrinic butyl-1’-adamantaneacetatehydrochloride]	–	11.1 ± 1.5	63.4 ± 2.3	–
O=C(OCCCC[C@@H]1[C@H]2CCCN3CCC[C@@H](CN1S(=O)(=O)c1ccc(C(F)(F)F)cc1)[C@@H]23)C12CC3CC(CC1C3)C2 [Compound 9g, 12N-p-Trifluoromethlybenzenesulfonylmatrinicbutyl-3’-noradamantane-1’-carboxylate hydrochloride]	–	–	38.5 ± 6.6	anti-H3N2 activity (in words) [1]: complete loss in activity
O=C(OCCCC[C@@H]1[C@H]2CCCN3CCC[C@@H](CN1S(=O)(=O)c1cccc(C(F)(F)F)c1)[C@@H]23)C12CC3CC(CC1C3)C2 [Compound 9h, 12N-m-Trifluoromethlybenzenesulfonylmatrinicbutyl-3’-noradamantane-1’-carboxylate hydrochloride]	–	–	59.7 ± 0.0	anti-H3N2 activity (in words) [1]: complete loss in activity
O=C(CC1CC2CCC1C2)OCCCC[C@@H]1[C@H]2CCCN3CCC[C@@H](CN1S(=O)(=O)c1ccc(C(F)(F)F)cc1)[C@@H]23 (stereo partly shown) [Compound 9i, 12N-p-Trifluoromethlybenzenesulfonyl matrinic butyl-2’-norbornane acetate hydrochloride]	–	25.7 ± 4.8	129.0 ± 20.9	–
CC(C)(C)C(=O)OCCCC[C@@H]1[C@H]2CCCN3CCC[C@@H](CN1S(=O)(=O)c1ccc(C(F)(F)F)cc1)[C@@H]23 [Compound 9k, 12N-p-Trifluoromethlybenzenesulfonyl matrinic butyl pivalate hydrochloride]	–	–	94.3 ± 11.3	–
CC(C)(C)C(=O)OCCCC[C@@H]1[C@H]2CCCN3CCC[C@@H](CN1S(=O)(=O)c1cccc(C(F)(F)F)c1)[C@@H]23 [Compound 9l, 12N-m-Trifluoromethlybenzenesulfonyl matrinicbutylpivalate hydrochloride]	–	18.2 ± 3.2	52.9 ± 8.0	–
CCOC(=O)[C@H](CCc1ccccc1)N[C@@H](C)C(=O)N1CCC[C@H]1C(=O)O [enalapril, (S)-N-[1-(ethoxycarbonyl)-3-phenylpropyl]-Ala-Pro maleate, reference compound]	–	–	–	stability in whole blood (in words) [3]: hydrolyzed quickly
